Data as given in PMC11111408, “Concurrent inhibition of oncogenic and wild-type RAS-GTP for cancer therapy” (Nature, 2024).
Where two headings read alike, the source gives them in different places.

Test system: panel of 183 cancer cell lines
Assay: Cell panel of 183 cancer cell lines, viability (CTG) at Crown Bioscience
Format: cell-based
Conditions: Homo sapiens
Excerpt: The panel consisted of cell lines with any substitution at position 12 of KRAS, NRAS or HRAS (KRAS(G12X), NRAS(G12X), HRAS(G12X)); substitutions in KRAS, NRAS or HRAS at any position other than 12, 13 and 61 (KRAS(other/VUS), NRAS(other/VUS), HRAS(other/VUS)); other oncogenic mutations in the RAS pathway (ABL1, ALK, ARAF, BRAF, CBL, EGFR, ERBB2, ERBB3, ERBB4, ERRFI1, FGFR1, FGFR2, FGFR3, FGFR4, FLT3, HRAS, IGF1R, JAK2, KIT, MAP2K1, MAP2K2, MAPK1, MET, NF1, NRAS, NTRK1, NTRK2, NTRK3, PDGFRA, PTPN11, RAC1, RAF1, RASA1, RET, RIT1, ROS1 and SOS1); and no oncogenic mutations in the RAS pathway. […] Cells were incubated for 120 h, and cell viability was determined using the CellTiter-Glo Luminescent Cell Viability Assay (CTG) (Promega, G7572) according to the manufacturer’s instructions.

SMILES: CCn1c(-c2cc(N3CCN(C4CC4)CC3)cnc2[C@H](C)OC)c2c3cc(ccc31)-c1csc(n1)C[C@H](NC(=O)[C@H]1[C@@H]3COC[C@@H]31)C(=O)N1CCC[C@H](N1)C(=O)OCC(C)(C)C2 [RMC-7977]
- EC50 (JHH-2, read-out: RMC-7977 EC50 (M), JHH2, ROS1 fusion, Liver): 5.37e-09 M
- EC50 (KARPAS-299, read-out: RMC-7977 EC50 (M), KARPAS299, ALK fusion, Blood/lymphoma): 9.47e-08 M
- EC50 (KATO III, read-out: RMC-7977 EC50 (M), KATOIII, RAS pathway WT, Stomach): 1.48e-08 M
- EC50 (KHOS/NP, read-out: RMC-7977 EC50 (M), KHOSNP, KRAS A59T, Bone): 1.02e-09 M
- EC50 (KM 12L4, read-out: RMC-7977 EC50 (M), KM12L4, NTRK1 fusion, Large intestine/Colorectum): 5.14e-09 M
- EC50 (KRAS^G12X mutant cell lines, read-out: median EC50): 2.4e-09 M
- EC50 (KYSE-150, read-out: RMC-7977 EC50 (M), KYSE150, ERBB3 mut, HN/Esophagus): 5.92e-09 M
- EC50 (KYSE-270, KYSE270, RTKMUT/fusion, read-out: EC50): 5.99e-09 M
- EC50 (KYSE-270, read-out: RMC-7977 EC50 (M), KYSE270, EGFR mut, HN/Esophagus): 5.99e-09 M
- EC50 (KYSE-410, read-out: RMC-7977 EC50 (M), KYSE410, KRAS G12C, HN/Esophagus): 4.07e-09 M
- EC50 (LC-2-ad, read-out: RMC-7977 EC50 (M), LC2AD, RET fusion, Lung): 5.15e-09 M
- EC50 (LCLC-97TM1, read-out: RMC-7977 EC50 (M), LCLC97TM1, KRAS G12V, Lung): 3.47e-10 M
- EC50 (LCLC-103H, read-out: RMC-7977 EC50 (M), LCLC103H, NF1 LOF, Lung): 3.67e-07 M
- EC50 (LN-229, read-out: RMC-7977 EC50 (M), LN229, PTPN11 mut, Brain&Nerves): 6.69e-09 M
- EC50 (LS174T, read-out: RMC-7977 EC50 (M), LS174T, KRAS G12D, Large intestine/Colorectum): 2.24e-08 M
- EC50 (LS180, read-out: RMC-7977 EC50 (M), LS180, KRAS G12D, Large intestine/Colorectum): 1.62e-08 M
- EC50 (LS-123, read-out: RMC-7977 EC50 (M), LS123, KRAS G12S, Large intestine/Colorectum): 1.29e-09 M
- EC50 (LS-513, read-out: RMC-7977 EC50 (M), LS513, KRAS G12D, Large intestine/Colorectum): 1.2e-09 M
- EC50 (LS-1034, read-out: RMC-7977 EC50 (M), LS1034, KRAS A146T, Large intestine/Colorectum): 2.51e-08 M
- EC50 (LoVo, read-out: RMC-7977 EC50 (M), LOVO, KRAS G13D, Large intestine/Colorectum): 5.62e-08 M
- EC50 (MCF7, read-out: RMC-7977 EC50 (M), MCF7, RAS pathway WT, Breast): > 1e-06 M
- EC50 (MES-SA, read-out: RMC-7977 EC50 (M), MESSA, RAS pathway WT, Uterus): > 1e-06 M
- EC50 (MFE-296, read-out: RMC-7977 EC50 (M), MFE296, RAS pathway WT, Uterus): > 1e-06 M
- EC50 (MIA PaCa-2, read-out: RMC-7977 EC50 (M), MIAPACA2, KRAS G12C, Lung): 4.27e-09 M
- EC50 (MKN-1, read-out: RMC-7977 EC50 (M), MKN1, RAS pathway WT, Stomach): 4.87e-08 M
- EC50 (MKN-45, read-out: RMC-7977 EC50 (M), MKN45, MET amp, Stomach): 8.64e-09 M
- EC50 (MeWo, read-out: RMC-7977 EC50 (M), MEWO, NF1 LOF, Skin): 4.86e-09 M
- EC50 (NCI-H23, read-out: RMC-7977 EC50 (M), NCIH23, KRAS G12C, Lung): 8.51e-10 M
- EC50 (NCI-H358, read-out: RMC-7977 EC50 (M), NCIH358, KRAS G12C, Lung): 6.31e-10 M
- EC50 (NCI-H441, read-out: RMC-7977 EC50 (M), NCIH441, KRAS G12V, Lung): 3.89e-10 M
- EC50 (NCI-H460, read-out: RMC-7977 EC50 (M), NCIH460, KRAS Q61H, Lung): 6.17e-09 M
- EC50 (NCI-H508, read-out: RMC-7977 EC50 (M), NCIH508, BRAF mut other, Large intestine/Colorectum): 1.21e-07 M
- EC50 (NCI-H520, read-out: RMC-7977 EC50 (M), NCIH520, RAS pathway WT, Lung): 2.85e-08 M
- EC50 (NCI-H716, read-out: RMC-7977 EC50 (M), NCIH716, KRAS R97I, Large intestine/Colorectum): 2.75e-09 M
- EC50 (NCI-H727, read-out: RMC-7977 EC50 (M), NCIH727, KRAS G12V, Lung): 7.24e-10 M
- EC50 (NCI-H747, read-out: RMC-7977 EC50 (M), NCIH747, KRAS G13D, Large intestine/Colorectum): 1.82e-09 M
- EC50 (NCI-H1155, read-out: RMC-7977 EC50 (M), NCIH1155, KRAS Q61H, Lung): > 1e-06 M
- EC50 (NCI-H1299, read-out: RMC-7977 EC50 (M), NCIH1299, NRAS Q61K, Lung): 1.78e-09 M
- EC50 (NCI-H1373, read-out: RMC-7977 EC50 (M), NCIH1373, KRAS G12C, Lung): 1.78e-09 M
- EC50 (NCI-H1395, read-out: RMC-7977 EC50 (M), NCIH1395, BRAF mut other, Lung): > 1e-06 M
- EC50 (NCI-H1581, read-out: RMC-7977 EC50 (M), NCIH1581, RAS pathway WT, Lung): 5.55e-08 M
- EC50 (NCI-H1650, read-out: RMC-7977 EC50 (M), NCIH1650, EGFR mut, Lung): 4.04e-08 M
- EC50 (NCI-H1666, read-out: RMC-7977 EC50 (M), NCIH1666, BRAF mut other, Lung): 8.2e-09 M
- EC50 (NCI-H1792, read-out: RMC-7977 EC50 (M), NCIH1792, KRAS G12C, Lung): 1.91e-09 M
- EC50 (NCI-H1838, read-out: RMC-7977 EC50 (M), NCIH1838, NF1 LOF, Lung): 8.76e-09 M
- EC50 (NCI-H1915, read-out: RMC-7977 EC50 (M), NCIH1915, HRAS Q61L, Lung): 1.62e-08 M
- EC50 (NCI-H1944, read-out: RMC-7977 EC50 (M), NCIH1944, KRAS G13D, Lung): 3.16e-08 M
- EC50 (NCI-H1975, read-out: RMC-7977 EC50 (M), NCIH1975, EGFR mut, Lung): 4.07e-09 M
- EC50 (NCI-H1993, read-out: RMC-7977 EC50 (M), NCIH1993, MET amp, Lung): 4.57e-09 M
- EC50 (NCI-H2009, read-out: RMC-7977 EC50 (M), NCIH2009, KRAS G12A, Lung): 5.75e-09 M
- EC50 (NCI-H2087, read-out: RMC-7977 EC50 (M), NCIH2087, NRAS Q61K, Lung): 5.89e-10 M
- EC50 (NCI-H2110, read-out: RMC-7977 EC50 (M), NCIH2110, PTPN11 mut, Lung): 7.95e-09 M
- EC50 (NCI-H2122, read-out: RMC-7977 EC50 (M), NCIH2122, KRAS G12C, Lung): 9.33e-10 M
- EC50 (NCI-H2172, read-out: RMC-7977 EC50 (M), NCIH2172, RAS pathway WT, Lung): 4.73e-07 M
- EC50 (NCI-H2228, read-out: RMC-7977 EC50 (M), NCIH2228, ALK fusion, Lung): 1.41e-08 M
- EC50 (NCI-H3122, read-out: RMC-7977 EC50 (M), NCIH3122, ALK fusion, Lung): 4.62e-09 M
- EC50 (NCI-H3255, read-out: RMC-7977 EC50 (M), NCIH3255, EGFR mut, Lung): 6.28e-09 M
- EC50 (NF1^LOF cell lines, read-out: median EC50): 3.25e-08 M
- EC50 (NRAS and HRAS mutant cell lines, read-out: median EC50): 6.76e-09 M
- EC50 (NUGC-4, read-out: RMC-7977 EC50 (M), NUGC4, NF1 LOF, Stomach): 3.16e-09 M
